From patent US8642594B2, “Substituted thieno[2,3-d]pyrimidines as HSP90 inhibitors” (Vernalis (R&D) Limited, priority 2003, dated 2014) come the findings set out here.

T1 sequence (P08238 whole entry): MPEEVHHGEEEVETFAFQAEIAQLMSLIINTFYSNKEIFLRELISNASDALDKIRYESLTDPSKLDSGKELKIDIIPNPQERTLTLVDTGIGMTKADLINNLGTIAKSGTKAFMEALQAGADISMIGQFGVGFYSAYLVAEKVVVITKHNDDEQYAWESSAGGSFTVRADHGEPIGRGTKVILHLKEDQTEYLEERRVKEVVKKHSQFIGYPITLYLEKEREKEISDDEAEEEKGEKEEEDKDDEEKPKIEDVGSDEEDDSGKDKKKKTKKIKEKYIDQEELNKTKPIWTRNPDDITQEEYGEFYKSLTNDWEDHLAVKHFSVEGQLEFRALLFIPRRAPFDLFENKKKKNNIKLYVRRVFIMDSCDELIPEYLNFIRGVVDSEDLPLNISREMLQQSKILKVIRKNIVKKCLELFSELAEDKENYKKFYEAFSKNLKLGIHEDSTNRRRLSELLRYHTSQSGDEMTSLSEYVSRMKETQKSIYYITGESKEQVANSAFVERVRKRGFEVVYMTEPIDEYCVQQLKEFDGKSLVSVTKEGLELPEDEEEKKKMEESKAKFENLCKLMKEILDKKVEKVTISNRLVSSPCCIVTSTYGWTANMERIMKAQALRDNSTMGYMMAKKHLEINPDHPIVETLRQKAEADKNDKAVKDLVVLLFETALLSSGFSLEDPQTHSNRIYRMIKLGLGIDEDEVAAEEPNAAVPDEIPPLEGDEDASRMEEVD

The assay has as its target T1, Human full-length Hsp90 (Homo sapiens, UniProt P08238).
T1 construct: E. coli expressed human full-length HSP90 protein, purified >95%; made in house; host or cells: E. coli
Briefly: Fluorescence polarization assay (competitive binding to HSP90, probe RBT0045864-FAM). Particulars: fluorescence polarization assay, activity range; read-out: Hsp90 FP IC50. An outline of the steps: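 Competitive fluorescence polarization: test compound displaces FAM-labelled probe RBT0045864-FAM (200 nM working solution) from HSP90 after equilibration, and anisotropy change is measured. Compounds serially diluted; BSA-containing buffer; standard compound as positive control; Z′ from zero and positive controls.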
A general note: Fluorescence polarisation rises when a labelled molecule tumbles more slowly, as on binding a larger partner.
As for `CCNC(=O)c1cc2c(/C=C/c3ccccc3)nc(N)nc2s1` [Example 286], the IC50 is < 10 µM.

`CCNC(=O)c1cc2c(C(C)c3ccccc3)nc(N)nc2s1` (stereo not shown) [Example 287]: the IC50 was < 10 µM.

With `CCOC(=O)c1cc2c(/C=C/c3ccc(C(F)(F)F)cc3)nc(N)nc2s1` [Example 288], the IC50 was < 10 µM.

On to `CCOC(=O)c1cc2c(/C=C/C(C)(C)C)nc(N)nc2s1` [Example 289], for which the IC50 is > 10 µM.

Turning to `CCOC(=O)c1cc2c(-c3csc4ccccc34)nc(N)nc2s1` [Example 290], the IC50 is > 10 µM.

As to `CC=Cc1nc(N)nc2sc(C(=O)OCC)cc12` [Example 291], the IC50 is > 10 µM.

In the case of `CCC/C=C/c1nc(N)nc2sc(C(=O)OCC)cc12` [Example 292], the IC50 is > 10 µM.

Take `CCOC(=O)c1cc2c(-c3cncc4ccccc34)nc(N)nc2s1` [Example 293]: the IC50 was < 10 µM.

In the case of `CCNC(=O)c1cc2c(OCc3ccccc3)nc(N)nc2s1` [Example 294], the IC50 was > 10 µM.

Turning to `CCOC(=O)c1cc2c(-c3c[nH]c4ccccc34)nc(N)nc2s1` [Example 294], the IC50 is > 10 µM.

`CCOC(=O)c1cc2c(C(=O)c3ccc(Cl)cc3)nc(N)nc2s1` [Example 295, 2-Amino-4-(4-chloro-benzoyl)-thieno[2,3-d]pyrimidine-6-carboxylic acid ethyl ester]: the IC50 was < 10 µM.

As for `CCOC(=O)c1cc2c(C(=O)c3ccccc3)nc(N)nc2s1` [Example 296], the IC50 was < 10 µM.

Consider `CCOC(=O)c1cc2c(C(=O)c3ccc(OC)cc3)nc(N)nc2s1` [Example 297], for which the IC50 was < 10 µM.

Regarding `CCOC(=O)c1cc2c(C(=O)c3ccc4c(c3)OCO4)nc(N)nc2s1` [Example 298], the IC50 is < 10 µM.

Regarding `CCOC(=O)c1cc2c(C(=O)c3cc(C)ccc3C)nc(N)nc2s1` [Example 299], the IC50 is < 10 µM.

For the compound `CCOC(=O)c1cc2c(C(=O)c3cc(C)cc(C)c3)nc(N)nc2s1` [Example 300], the IC50 was < 10 µM.

As for `CCOC(=O)c1cc2c(C(=O)c3ccccc3F)nc(N)nc2s1` [Example 301], the IC50 is < 10 µM.

As for `CCOC(=O)c1cc2c(C(=O)c3ccccc3Cl)nc(N)nc2s1` [Example 302], the IC50 was < 10 µM.

For `CCOC(=O)c1cc2c(C(=O)c3cccc(F)c3)nc(N)nc2s1` [Example 303], the IC50 is < 10 µM.

Regarding `CCOC(=O)c1cc2c(C(=O)c3cccc(Cl)c3)nc(N)nc2s1` [Example 304], the IC50 was < 10 µM.

As to `CCOC(=O)c1cc2c(C(=O)c3ccc(F)cc3)nc(N)nc2s1` [Example 305], the IC50 was < 10 µM.

Turning to `CCOC(=O)c1cc2c(C(=O)c3ccc(C)c(C)c3)nc(N)nc2s1` [Example 306], the IC50 is < 10 µM.

In the case of `CCOC(=O)c1cc2c(C(=O)c3cccc(C)c3C)nc(N)nc2s1` [Example 307], the IC50 is < 10 µM.

Turning to `CCOC(=O)c1cc2c(C(=O)c3cc(C)c(C)cc3C)nc(N)nc2s1` [Example 308], the IC50 was < 10 µM.

On to `CCOC(=O)c1cc2c(C(=O)c3ccc(Cl)c(Cl)c3)nc(N)nc2s1` [Example 309], for which the IC50 was < 10 µM.

As to `CCOC(=O)c1cc2c(C(=O)c3ccc(OC)c(OC)c3)nc(N)nc2s1` [Example 310], the half-maximal inhibitory concentration (IC50) was < 10 µM.

Take `CCOC(=O)c1cc2c(C(=O)c3ccccc3C)nc(N)nc2s1` [Example 311]: the IC50 is < 10 µM.

In the case of `CCOC(=O)c1cc2c(C(=O)c3ccc4c(c3)OCCO4)nc(N)nc2s1` [Example 312], the IC50 is < 10 µM.

Turning to `CCOC(=O)c1cc2c(C(=O)c3ccc(Cl)c(F)c3)nc(N)nc2s1` [Example 313], the IC50 was < 10 µM.

For the compound `CCOC(=O)c1cc2c(C(=O)c3ccc(OC)c(F)c3)nc(N)nc2s1` [Example 314], the IC50 is < 10 µM.

Take `CCOC(=O)c1cc2c(C(C)(O)c3ccc4c(c3)OCO4)nc(N)nc2s1` (stereo not shown) [Example 315, 2-Amino-4-(1-benzo[1,3]dioxol-5-yl-1-hydroxy-ethyl)-thieno[2,3-d]pyrimidine-6-carboxylic acid ethyl ester]: the IC50 was < 10 µM.

As usually defined, the IC50 is the concentration that gives 50% inhibition.
